Results on one molecule are retold here after patent publication EP4606801A1, “FUSED HETEROCYCLIC COMPOUND AND USE THEREOF” (Chengdu Zenitar Biomedical Technology Co., Ltd., priority 2022, dated 2024).

One series deals with SUM14PT tumor cells. Nature of the series: In-vivo pharmacodynamic study on subcutaneous xenograft tumor model of breast cancer SUM14PT. Details: species or system nude mice. The following applies: Fig. 4. Here is the method: Experimental procedure: In this study, a mice model was established by subcutaneously inoculating SUM14PT tumor cells. Eight groups were divided for the experiment, with 6 mice in each group. The negative control group (Control) received normal saline at 0.2 mL per mice per administration, given orally once per day; the carboplatin control group (Carboplatin, Car) received 20 mg/kg at 0.2 mL per mice per administration, administered via intraperitoneal injection once every 7 days.

The target in the next series is T1, PARP5A (Homo sapiens, UniProt O95271).
T1 construct: purchased BPS 80504
T1 sequence (O95271 1001-1327): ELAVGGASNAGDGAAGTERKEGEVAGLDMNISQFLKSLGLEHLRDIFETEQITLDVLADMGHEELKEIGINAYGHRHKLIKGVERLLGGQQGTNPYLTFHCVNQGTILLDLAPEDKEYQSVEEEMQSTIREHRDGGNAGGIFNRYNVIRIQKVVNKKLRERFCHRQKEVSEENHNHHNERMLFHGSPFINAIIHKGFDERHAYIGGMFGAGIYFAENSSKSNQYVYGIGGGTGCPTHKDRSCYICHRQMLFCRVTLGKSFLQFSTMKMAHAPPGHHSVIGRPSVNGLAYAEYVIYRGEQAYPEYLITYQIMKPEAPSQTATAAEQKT
Briefly: Determination of PARP5A enzyme (histone-coated plate, Biotin-NAD+). The class given is biochemical. Here is the method: • 1.3.1 Preparation of buffer solution solution: PBST: 1x PBS, 0.05% Tween-20; blocking solution: 1x PBS, 0.05% Tween-20, 5% BSA; reaction buffer solution: 50 mM HEPES (pH 7.5), 0.002% Tween-20, 0.1% BSA, 100 mM NaCl, 2mM DTT. • 1.3.2 Coating: A 100 ng/mL Histone coating solution was prepared by using 1x PBS, 25 uL of the coating solution was transferred to a 384-well reaction plate, and the reaction plate was coated overnight at 4°C. • 1.3.3 Washing: After the coating was completed, the coating solution was discarded, and the reaction plate was washed with the PBST solution by means of transferring 50uL of the PBST solution to the 384-well reaction plate, letting it stand for 5 min, discarding the washing solution, refilling the reaction plate with the PBST solution, and repeating the washing process 3 times. Finally, the reaction plate was tapped dry and the next step of blocking was proceeded with. • 1.3.4 Blocking: 50 uL of the blocking solution was transferred to the 384-well reaction plate and set for 1 h. • 1.3.5 Washing: After the blocking was completed, the blocking solution was discarded, the reaction plate was washed 3 times with the PBST solution according to the method in Step 2, and the reaction plate was tapped dry. • 1.3.6 A 25/10× PARP5A solution was prepared, then 10 µL of the PARP5A solution was transferred to the 384-well reaction plate. For negative control wells, 10 µL of the reaction buffer solution instead was transferred, resulting in the final concentration of PARP5A of 10 nM. • 1.3.7 A 2,000x compound was prepared, 50 nL of the compound was transferred to with echo, 19.95 uL of the reaction buffer solution was added into the compound, mix well, and 5 uL of the mixed compound was transferred to the 384-well reaction plate. • 1.3.8 A 25/10x Biotin-NAD+ solution was prepared, 10uL of the Biotin-NAD+ solution was transferred to the 384-well reaction plate, resulting in a final Biotin-NAD+ concentration of 2uM, and incubated at room temperature for 60 min. • 1.3.9 Washing: After the reaction was completed, the reaction liquid was discarded. The reaction plate was washed 3 times with the PBST solution according to the method in Step 2, and the reaction plate was tapped dry. • 1.3.10 A Stre-HRP solution was prepared by means of diluting it with the blocking solution, 25uL of the Stre-HRP solution was transferred to the reaction plate, and incubated at room temperature for 1 h, resulting the final concentration of Stre-HRP of 0.1 µg/mL. • 1.3.11 Washing: The Stre-HRP solution was discarded, the reaction plate was washed 3 times with the PBST solution according to the method in Step 2, and the reaction plate was tapped dry. • 1.3.12 Color developing: Femto-ECL Substrate A, Femto-ECL Substrate B, and QuantaRed ADHP were mixed in a 50:50:1 ratio.

A further series has as its target T2, PARP2 (Homo sapiens, UniProt Q9UGN5).
T2 construct: purchased BPS 80502
Briefly: Determination of PARP2 enzyme (histone-coated plate, Biotin-NAD+). The class given is biochemical. Here is the method:
• 1.2.1 Preparation of buffer solution: PBST: 1x PBS, 0.05% Tween-20; blocking solution: 1x PBS, 0.05% Tween-20, 5% BSA; reaction buffer solution: 50 mM HEPES (pH 7.5), 0.002% Tween-20, 0.1% BSA, 100 mM NaCl, 2mM DTT. • 1.2.2 Coating: A 100 ng/mL Histone coating solution was prepared by using 1x PBS, 25 uL of the coating solution was transferred to a 384-well reaction plate, and the reaction plate was coated overnight at 4°C. • 1.2.3 Washing: After the coating was completed, the coating solution was discarded, and the reaction plate was washed with the PBST solution by means of transferring 50uL of the PBST solution to the 384-well reaction plate, letting it stand for 5 min, discarding the washing solution, refilling the reaction plate, and repeating the washing process 3 times. Finally, the reaction plate was tapped dry and the next step of blocking was proceeded with. • 1.2.4 Blocking: 50 uL of the blocking solution was transferred to the 384-well reaction plate and set for 1 h. • 1.2.5 Washing: After the blocking was completed, the blocking solution was discarded, the reaction plate was washed 3 times with the PBST solution according to the method in Step 2, and the reaction plate was tapped dry. • 1.2.6 A 25/10× PARP2 solution was prepared, then 10 µL of the PARP2 solution was transferred to the 384-well reaction plate.

The next series is described as follows: in vivo. To be noted: male, SD, rat, po.

Bounds are passed on as bounds.

T2 sequence (Q9UGN5 whole entry): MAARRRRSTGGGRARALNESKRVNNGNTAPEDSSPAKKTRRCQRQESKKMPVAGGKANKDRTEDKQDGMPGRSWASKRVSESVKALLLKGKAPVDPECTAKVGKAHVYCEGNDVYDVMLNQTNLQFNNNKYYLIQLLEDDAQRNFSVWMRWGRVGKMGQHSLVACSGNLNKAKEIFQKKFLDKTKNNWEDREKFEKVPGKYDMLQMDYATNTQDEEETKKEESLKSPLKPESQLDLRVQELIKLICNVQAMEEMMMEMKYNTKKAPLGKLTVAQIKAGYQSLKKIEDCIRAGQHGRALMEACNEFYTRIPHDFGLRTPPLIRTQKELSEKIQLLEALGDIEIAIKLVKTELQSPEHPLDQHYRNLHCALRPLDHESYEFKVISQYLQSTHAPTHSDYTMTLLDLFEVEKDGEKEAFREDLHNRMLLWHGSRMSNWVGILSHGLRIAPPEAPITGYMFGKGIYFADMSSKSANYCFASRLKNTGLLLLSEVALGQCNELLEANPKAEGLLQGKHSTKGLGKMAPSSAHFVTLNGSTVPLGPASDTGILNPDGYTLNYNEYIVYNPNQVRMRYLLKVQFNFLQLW
Method for in vivo: Experimental procedure: The compound, a small amount of DMSO and a sodium chloride injection were added to prepare the final solution for administration. The compound was orally administered to 6 male SD rats. […] The supernatant was collected and transferred into a sample vial for assay. Range of standard curve: 10 - 10,000 ng·mL^-1.

For the molecule `[2H]C([2H])([2H])C([2H])([2H])c1cc2ncc(CN3CC=C(c4ccc(C(=O)NC)nc4)CC3)cc2[nH]c1=O` [Compound 6, 1'-((7-(ethyl-d5)-6-oxo-5,6-dihydro-1,5-naphthyridin-3-yl)methyl)-N-methyl-1',2',3',6'-tetrahy dro-[3,4'-bipyridine]-6-carboxamide], the “therapeutic efficacy in combination with carboplatin” value in the series on SUM14PT tumor cells (1 mg/kg orally once daily + carboplatin, versus Olaparib 100 mg/kg + carboplatin) is recorded as “better therapeutic efficacy than Olaparib”. In addition, in the series with SUM14PT tumor cells (0.3 and 1 mg/kg orally once daily, versus Olaparib 100 mg/kg orally once daily), the “anti-tumor efficacy, monotherapy” value was “better anti-tumor efficacy compared to Olaparib”. Besides, the concentration for half-maximal inhibition (IC50) on PARP5A and at PARP2 was above 1 µM throughout. This molecule showed a half-life in the series “in vivo” of 8.4 h.
